Source: patent US9757408B2 (Hayashibara Co., Ltd., priority 2010, dated 2017)
Read-outs that look alike come from different tables or passages of the source.

What was measured:
[1] = tested on: TNF-α production from mouse intraperitoneal macrophages; assay: IC50 for TNF-α production from mouse macrophages, LPS + IFN-γ, nucleic acid derivatives (Experiment 19); assay type: cell-based; settings: for IC50 / IC50 Concentration TNF-α: mouse macrophages, LPS and IFN-γ, 20 hours; for IC50: read-out: IC50 Concentration TNF-α; for inhibitory action on the production of inflammatory cytokines (in words): mouse intraperitoneal macrophages stimulated with LPS and IFN-γ
Source text: (§1) After completion of the culture, the supernatant in each well was collected and assayed for cytokines and prostaglandin E2 (called “PGE2”, hereinafter) with ELISA.

[2] = tested on: IL-6 production from mouse intraperitoneal macrophages; assay: IC50 for IL-6 production from mouse macrophages, LPS + IFN-γ (Experiment 19); assay type: cell-based; settings: for IC50 Concentration IL-6 / IC50: mouse macrophages, LPS and IFN-γ, 20 hours; for IC50: read-out: IC50 Concentration IL-6; for inhibition of the production of IL-6 (in words): mouse intraperitoneal macrophages stimulated with LPS and IFN-γ
Source text: as §1

[3] = tested on: IL-12 production from mouse intraperitoneal macrophages; assay: IC50 for IL-12 production from mouse macrophages, LPS + IFN-γ (Experiment 19); assay type: cell-based; settings: mouse macrophages, LPS and IFN-γ, 20 hours; read-out: IC50 Concentration IL-12
Source text: as §1

[4] = tested on: PGE2 production from mouse intraperitoneal macrophages; assay: IC50 for PGE2 production from mouse macrophages, LPS + IFN-γ (Experiment 19); assay type: cell-based; settings: mouse macrophages, LPS and IFN-γ, 20 hours; read-out: IC50 Concentration PGE2
Source text: as §1

BALB/c mice [5] = assay: Acute toxicity test, intraperitoneal (Experiment 20); settings: BALB/c mice, intraperitoneal
Description: As a control, only PBS was intraperitoneally administered to 10 BALB/c mice (6-week-old, female, average weight of 20 g, commercialized by Charles River Laboratories Japan Inc., Tokyo, Japan) at a dose of 1 mL/head, followed by observing the course of the mice for 24 hours.

BALB/c mice [6] = assay: Safeness of injection preparations, i.v. once a day for seven days (Example 2); assay type: in vivo; settings: BALB/c mice
Description: The safeness of the preparations prepared in the above was evaluated.

In the case of `Nc1nc2c([nH]c(=O)n2[C@H]2C[C@H](O)[C@@H](CO)O2)c(=O)[nH]1` [8-OH-deoxyguanine], the IC50 [1] is reported as > 200 µM and the “IC50 Concentration IL-6” value [2] is reported as “Enhanced”.
With `Nc1nc2c(nc(O)n2[C@@H]2O[C@H](CO)[C@@H](O)[C@H]2O)c(=O)[nH]1` [8-OH-guanosine] the IC50 [1] was > 200 µM and the “IC50 Concentration IL-6” value [2] was “Enhanced”.
With `CC1(C)[C@@H](O)CC[C@]2(C)[C@H]3C(=O)C=C4[C@@H]5C[C@@](C)(C(=O)O)CC[C@]5(C)CC[C@@]4(C)[C@]3(C)CC[C@@H]12` [18β-glycyrrhetinate] the IC50 [1] was 50.2 µM, the IC50 [2] was 87.3 µM and the IC50 [3] was > 200 µM. The IC50 [4] was > 200 µM.
`CNC(=O)[C@H]1O[C@@H](n2cnc3c(NCc4cccc(I)c4)ncnc32)[C@H](O)[C@@H]1O` [IB-MECA, 1-deoxy-1-[6-[[(3-iodophenyl-)methyl]amino]-9H-purin-9-yl]-N-methyl-β-D-ribofuranuronamide] was tested, and the IC50 [1] was 0.4 µM, the “inhibition of the production of IL-6 (in words)” value [2] was “no inhibition” and the “IC50 Concentration IL-6” value [2] was “Not inhibited”. The IC50 [3] was 4.5 µM.
For `Nc1c2[nH]cnc2nc[n+]1[O-]` [adenine N1-oxide], the IC50 ([1]; Macrophage) was 137 µM, the “inhibitory action on the production of inflammatory cytokines (in words)” value (“inhibitory action on the production” below) [1] was “only a weak inhibitory action” and the IC50 ([2]; Macrophage) was > 200 µM.
For `Nc1ncnc2nc[nH]c12` [adenine], the IC50 ([1]; Macrophage) was 85.2 µM, the “inhibitory action on the production” value [1] was “only a weak inhibitory action” and the IC50 ([2]; Macrophage) was > 200 µM.
With `Nc1ncnc2c1ncn2[C@@H]1O[C@H](COP(=O)(O)O)[C@@H](O)[C@H]1O` [adenosine 5′-monophosphate] the IC50 ([1]; Macrophage) was 32.1 µM, the “inhibitory action on the production” value [1] was “only a weak inhibitory action” and the “IC50 Concentration IL-6” value [2] was “Not inhibited”.
`Nc1c2ncn([C@@H]3O[C@H](COP(=O)(O)O)[C@@H](O)[C@H]3O)c2nc[n+]1[O-]` [adenosine N1-oxide 5′-monophosphate] was tested, and the IC50 [1] was 0.9 µM, the “inhibition of the production of IL-6 (in words)” value [2] was “strongly inhibited” and the IC50 [2] was 10.2 µM. The IC50 [3] was > 200 µM, the “clinical laboratory test results that provide indices of renal and liver functions, versus control” value (BALB/c mice [5]; blood and urine at 24 hours) was “no difference” and the “change in appearance after administration” value (BALB/c mice [5]; observed 24 hours) was “no change in appearance”. The “change in body weight and other appearance versus PBS” value (BALB/c mice [6]; i.v. 0.3 mL/head once a day for seven days, followed two weeks) was “no significant change” and the “clinical laboratory test results that provide indices of renal and liver functions versus PBS” value (BALB/c mice [6]; i.v. once a day for seven days, two weeks after initiating) was “no difference”.
In the case of `CC1(C)[C@@H](O[C@H]2O[C@H](C(=O)O)[C@@H](O)[C@H](O)[C@H]2O[C@@H]2O[C@H](C(=O)O)[C@@H](O)[C@H](O)[C@H]2O)CC[C@]2(C)[C@H]3C(=O)C=C4[C@@H]5C[C@@](C)(C(=O)O)CC[C@]5(C)CC[C@@]4(C)[C@]3(C)CC[C@@H]12` [dipotassium glycyrrhizinate], the IC50 [1] is reported as > 200 µM, the IC50 [2] is reported as > 200 µM and the IC50 [3] is reported as > 200 µM. The IC50 [4] was > 200 µM.
`Nc1nc2nc[nH]c2c(=O)[nH]1` [guanine] was tested, and the “IC50 Concentration TNF-α” value [1] was “Not inhibited” and the “IC50 Concentration IL-6” value [2] was “Not inhibited”.
With `Nc1nc2c(ncn2[C@@H]2O[C@H](COP(=O)(O)O)[C@@H](O)[C@H]2O)c(=O)[nH]1` [guanosine 5′-monophosphate] the “IC50 Concentration TNF-α” value [1] was “Not inhibited” and the “IC50 Concentration IL-6” value [2] was “Not inhibited”.
For `Nc1nc2c(ncn2[C@@H]2O[C@H](CO)[C@@H](O)[C@H]2O)c(=O)[nH]1` [guanosine], the “IC50 Concentration TNF-α” value [1] was “Not inhibited” and the “IC50 Concentration IL-6” value [2] was “Not inhibited”.
